# Marks after values point to notes of the source that are not given here.
# How the values were obtained:
# Type in all cases: in vivo, C57BL/6 mice
# [1] = Body weight monitoring (weight loss and toxicity)
# Experimental: Beginning 10 days prior to immunization, mice were fed a purified 0.87% calcium diet delivering the indicated doses of either 25(OH)D3 or 1,25(OH)2D3. Treatment continued for the duration of the experiment. (A) Average clinical EAE scores were determined daily for vehicle, 25(OH)D3, and 1,25(OH)2D3-treated mice (n=15-17). (B) Mice were weighed weekly (±SD) throughout the study to monitor weight loss and toxicity. (C) Serum calcium levels (±SD) were determined at the end of the experiment using a clinical chemistry analyzer. (D) Serum 25(OH)D3 levels (±SD) were determined at the termination of the experiment. *P<0.05 compared to control group. Vitamin D toxicity is known to cause weight loss and a dramatic rise in serum calcium levels. To assess the effect of UV treatment on these parameters, mice were weighed at selected time intervals throughout the study, and serum calcium levels were determined at the termination of the experiment. […] Furthermore, there were no detected difference in serum calcium levels at either the end of the UVB-pretreatment period (data not shown) or at the termination of the experiment (FIG. 1C). In addition, serum 25(OH)D3 levels were determined both at the end of the UVB-pretreatment period and at the termination of the experiment. […] Corresponding levels of the 5.0 kJ/m^2 group remained elevated at the termination of the experiment.
# EAE = EAE model of MS induced with MOG35-55, daily clinical scoring; conditions: for Incidence: from 10 days before immunization, 25 days monitoring; for CDI / Day of Onset / Peak Severity: mean ± SD; for Peak Severity: score scale 0-5
# [2] = Analysis of serum calcium levels; conditions: end of experiment, vehicle 10.1 mg/dl
# Experimental: Blood samples were collected at the termination of the experiments and spun at 6000 rpm (2938 g) for 15 min, followed by a second spin at 14000 rpm (16883 g) for 1 min. Serum calcium levels were determined using the calcium L3K reagent (Genzyme Diagnostics, Charlottetown, PE Canada) and the ABX Pentra 400 clinical chemistry analyzer (Horiba-ABX Diagnostics, Irvine, Calif.).
# [3] = Analysis of serum 25(OH)D3 levels (125I-radioimmunological assay); conditions: dietary administration 10, 500, 1000 μg/kg per day; termination of the experiment
# Experimental: Blood samples were collected at selected time points throughout the experiment. Red blood cells were removed through two successive centrifugation steps as described above. Serum 25(OH)D3 levels were determined using a ^125I-radioimmunological assay following the manufacturer's instructions (DiaSorin, Stillwater, Minn.). Samples above the range of the standard curve were diluted prior to analysis. Radioactivity was quantified using a Cobra 5002 gamma scintillation counter (PerkinElmer, Shelton, Conn.).
# [4] = 2.5 μg/kg per day in purified diet
# [5] = 10 μg/kg per day in purified diet
# [6] = 500 μg/kg per day in purified diet
# [7] = 1000 μg/kg per day in purified diet
smiles,measurement,setting,value
"C=C1/C(=C\C=C2/CCC[C@]3(C)[C@@H]([C@H](C)CCCC(C)(C)O)CC[C@@H]23)C[C@@H](O)C[C@@H]1O [1,25(OH)2D3, 1α,25-dihydroxyvitamin D3]",Weight of the mice at the termination of the study,"[1]; mouse, in vivo",significant decrease
same,Induction of EAE,EAE; 2.5 μg/kg per day,prevented the induction of EAE
same,Incidence,EAE; [4],35% (6/17)†
same,CDI,EAE; [4],4 ± 7
same,Day of Onset,EAE; [4],20 ± 3
same,Peak Severity,EAE; [4],2.3 ± 0.6
same,Clinical signs of EAE,"EAE; pilot studies, 2.5 μg/kg per day (data not shown)",dramatic suppression
"C=C1CC[C@H](O)C/C1=C/C=C1\CCC[C@]2(C)[C@@H]([C@H](C)CCCC(C)(C)O)CC[C@@H]12 [25(OH)D3, 25-hydroxyvitamin D3]",Serum calcium levels,[2]; 10 μg/kg per day in diet,9.9 mg/dL
same,Serum calcium levels,[2]; 500 μg/kg per day in diet,12.9 mg/dL
same,Serum calcium levels,[2]; 1000 μg/kg per day in diet,14.2 mg/dL
same,Weight of the mice at the termination of the study,[1]; 1000 μg/kg per day in diet,significant decrease
same,Serum 25(OH)D3 levels,[3],dose-dependent increase
same,"Effect on incidence, onset, severity, or progression of EAE",EAE; 10 μg/kg per day,no significant effect
same,Incidence,EAE; [5],88% (15/17)
same,CDI,EAE; [5],23 ± 16
same,Day of Onset,EAE; [5],14 ± 3
same,Peak Severity,EAE; [5],2.9 ± 0.9
same,Clinical EAE scores,EAE; 500 μg/kg per day,slight suppression
same,Incidence,EAE; [6],82% (14/17)
same,CDI,EAE; [6],19 ± 12
same,Day of Onset,EAE; [6],16 ± 4
same,Peak Severity,EAE; [6],2.7 ± 0.6
same,Suppression of EAE,EAE; 1000 μg/kg per day,modest suppression
same,Incidence,EAE; [7],82% (14/17)
same,CDI,EAE; [7],17 ± 11
same,Day of Onset,EAE; [7],16 ± 3
same,Peak Severity,EAE; [7],2.6 ± 0.6

# — patent publication US11260241B2, “Method of treating multiple sclerosis” (Wisconsin Alumni Research Foundation, priority 2010, dated 2022)
